Test results taken from paper PMC8923172 (Antimicrobial Agents and Chemotherapy, 2022).
Marks after values point to notes of the source that are not given here. Residues, ends and D or L forms follow the SMILES beside them.

Assay: Serum biochemistry of rats at the end of treatment
Assay type: in vivo, Sprague-Dawley rats
Details: median (IQR)

For `CC[C@H](C)[C@@H]1NC(=O)[C@@H]2CSSC[C@H](NC(=O)[C@H](CCCNC(=N)N)NC(=O)[C@@H]3CSSC[C@H](NC1=O)C(=O)N[C@@H]([C@@H](C)O)C(=O)N[C@@H](CCCNC(=N)N)C(=O)NCC(=O)N[C@@H](Cc1ccccc1)C(=O)N3)C(=O)N[C@@H](CC(C)C)C(=O)N[C@H]1CSSC[C@H](NC(=O)[C@H](C(C)C)NC(=O)CNC(=O)[C@H](CCCNC(=N)N)NC(=O)[C@H](CCCNC(=N)N)NC1=O)C(=O)N[C@@H](CCCNC(=N)N)C(=O)N2` [RTD-1, Rhesus theta (θ) defensin-1] (HELM PEPTIDE1{G.F.C.R.C.L.C.R.R.G.V.C.R.C.I.C.T.R}$PEPTIDE1,PEPTIDE1,3:R3-16:R3|PEPTIDE1,PEPTIDE1,5:R3-14:R3|PEPTIDE1,PEPTIDE1,7:R3-12:R3|PEPTIDE1,PEPTIDE1,1:R1-18:R2$$$V2.0), the A/G (female, 5 mg/kg/day) was 2.1 (0.2), the ALP (female, 5 mg/kg/day) was 92.0 (21.0) U/L and the ALT (female, 5 mg/kg/day) was 35.0 (7.0) U/L. The AST (female, 5 mg/kg/day) was 139.0 (35.0) U/L, the Albumin (female, 5 mg/kg/day) was 3.9 (0.3) g/dL and the CK (female, 5 mg/kg/day) was 792.0 (198.0) U/L. The Calcium (female, 5 mg/kg/day) was 9.8 (0.2) mg/dL, the Chloride (female, 5 mg/kg/day) was 105.0 (2.0) mmol/L and the Cholesterol (female, 5 mg/kg/day) was 55.0 (15.0) mg/dL. The Creatinine (female, 5 mg/kg/day) was 0.3 (0.0) mg/dL, the GGT (female, 5 mg/kg/day) was 0.0 (0.0) U/L and the Globulin (female, 5 mg/kg/day) was 1.8 (0.1) g/dL. The Glucose (female, 5 mg/kg/day) was 97.0 (16.0) mg/dL, the Phos (female, 5 mg/kg/day) was 7.3 (0.8) mg/dL and the Potassium (female, 5 mg/kg/day) was 4.9 (0.4) mmol/L. For the same molecule, the Sodium (female, 5 mg/kg/day) was 143.0 (1.0) mmol/L, the T-Bil (female, 5 mg/kg/day) was 0.0 (0.0) mg/dL and the TP (female, 5 mg/kg/day) was 5.8 (0.5) g/dL. For the same molecule, the Triglycerides (female, 5 mg/kg/day) was 25.0 (7.0) mg/dL, the “Urea N” value (female, 5 mg/kg/day) was 20.0 (2.0) mg/dL and the A/G (female, 10 mg/kg/day) was 2.2 (0.2). The ALP (female, 10 mg/kg/day) was 109.5 (30.5) U/L, the ALT (female, 10 mg/kg/day) was 32.5 (6.0) U/L and the AST (female, 10 mg/kg/day) was 122.0 (14.3) U/L. For the same molecule, the Albumin (female, 10 mg/kg/day) was 3.9 (0.1) g/dL, the CK (female, 10 mg/kg/day) was 473.5 (211.3) U/L and the Calcium (female, 10 mg/kg/day) was 10.0 (0.3) mg/dL. For the same molecule, the Chloride (female, 10 mg/kg/day) was 105.0 (2.0) mmol/L, the Cholesterol (female, 10 mg/kg/day) was 55.0 (26.5) mg/dL and the Creatinine (female, 10 mg/kg/day) was 0.3 (0.0) mg/dL. The GGT (female, 10 mg/kg/day) was 0.0 (0.0) U/L, the Globulin (female, 10 mg/kg/day) was 1.8 (0.2) g/dL and the Glucose (female, 10 mg/kg/day) was 99.0 (5.5) mg/dL. The Phos (female, 10 mg/kg/day) was 7.1 (0.8) mg/dL, the Potassium (female, 10 mg/kg/day) was 5.1 (0.5) mmol/L and the Sodium (female, 10 mg/kg/day) was 142.5 (1.0) mmol/L. For the same molecule, the T-Bil (female, 10 mg/kg/day) was 0.0 (0.0) mg/dL, the TP (female, 10 mg/kg/day) was 5.7 (0.4) g/dL and the Triglycerides (female, 10 mg/kg/day) was 26.0 (11.5) mg/dL. For the same molecule, the “Urea N” value (female, 10 mg/kg/day) was 21.0 (1.8) mg/dL, the A/G (female, 20 mg/kg, day 2) was 3.0 (0.4)^c^,^d^,^e and the ALP (female, 20 mg/kg, day 2) was 142.0 (34.5)^d^,^e U/L. The ALT (female, 20 mg/kg, day 2) was 62.0 (28.5)^c^,^d^,^e U/L, the AST (female, 20 mg/kg, day 2) was 397.0 (345.5)^d^,^e U/L and the Albumin (female, 20 mg/kg, day 2) was 3.0 (0.6)^d^,^e g/dL. For the same molecule, the CK (female, 20 mg/kg, day 2) was 1,506.0 (2,604.5) U/L, the Calcium (female, 20 mg/kg, day 2) was 10.3 (0.6)^c^,^d mg/dL and the Chloride (female, 20 mg/kg, day 2) was 104.0 (3.0) mmol/L. For the same molecule, the Cholesterol (female, 20 mg/kg, day 2) was 52.0 (6.5) mg/dL, the Creatinine (female, 20 mg/kg, day 2) was 0.5 (0.2)^c^,^d^,^e mg/dL and the GGT (female, 20 mg/kg, day 2) was 4.0 (5.5)^c^,^d^,^e U/L. For the same molecule, the Globulin (female, 20 mg/kg, day 2) was 1.0 (0.3)^c^,^d^,^e g/dL, the Glucose (female, 20 mg/kg, day 2) was 218.0 (70.0)^c^,^d^,^e mg/dL and the Phos (female, 20 mg/kg, day 2) was 9.3 (5.0) mg/dL. For the same molecule, the Potassium (female, 20 mg/kg, day 2) was 4.9 (0.7) mmol/L, the Sodium (female, 20 mg/kg, day 2) was 141.0 (2.5)^c mmol/L and the T-Bil (female, 20 mg/kg, day 2) was 0.0 (0.0) mg/dL. For the same molecule, the TP (female, 20 mg/kg, day 2) was 3.9 (0.8)^c^,^d^,^e g/dL, the Triglycerides (female, 20 mg/kg, day 2) was 106.0 (36.5)^c^,^d^,^e mg/dL and the “Urea N” value (female, 20 mg/kg, day 2) was 20.0 (3.0) mg/dL. For the same molecule, the A/G (male, 5 mg/kg/day) was 2.2 (0.3), the ALP (male, 5 mg/kg/day) was 212.0 (40.3) U/L and the ALT (male, 5 mg/kg/day) was 40.0 (9.8) U/L. The AST (male, 5 mg/kg/day) was 133.0 (34.0) U/L, the Albumin (male, 5 mg/kg/day) was 3.8 (0.0) g/dL and the CK (male, 5 mg/kg/day) was 765.5 (395.5) U/L. For the same molecule, the Calcium (male, 5 mg/kg/day) was 9.8 (0.4) mg/dL, the Chloride (male, 5 mg/kg/day) was 104.5 (1.8) mmol/L and the Cholesterol (male, 5 mg/kg/day) was 70.5 (10.3) mg/dL. The Creatinine (male, 5 mg/kg/day) was 0.2 (0.1) mg/dL, the GGT (male, 5 mg/kg/day) was 0.0 (0.0) U/L and the Globulin (male, 5 mg/kg/day) was 1.7 (0.2) g/dL. For the same molecule, the Glucose (male, 5 mg/kg/day) was 72.5 (16.3) mg/dL, the Phos (male, 5 mg/kg/day) was 8.5 (0.5) mg/dL and the Potassium (male, 5 mg/kg/day) was 5.2 (0.2) mmol/L. For the same molecule, the Sodium (male, 5 mg/kg/day) was 144.0 (1.8) mmol/L, the T-Bil (male, 5 mg/kg/day) was 0.0 (0.0) mg/dL and the TP (male, 5 mg/kg/day) was 5.5 (0.2) g/dL. The Triglycerides (male, 5 mg/kg/day) was 37.0 (21.5) mg/dL, the “Urea N” value (male, 5 mg/kg/day) was 16.5 (4.0) mg/dL and the A/G (male, 10 mg/kg/day) was 2.4 (0.2). The ALP (male, 10 mg/kg/day) was 212.5 (51.5) U/L, the ALT (male, 10 mg/kg/day) was 32.5 (4.5) U/L and the AST (male, 10 mg/kg/day) was 113.5 (16.8) U/L. The Albumin (male, 10 mg/kg/day) was 3.7 (0.2) g/dL, the CK (male, 10 mg/kg/day) was 612.5 (254.8) U/L and the Calcium (male, 10 mg/kg/day) was 9.7 (0.2) mg/dL. The Chloride (male, 10 mg/kg/day) was 105.0 (1.0) mmol/L, the Cholesterol (male, 10 mg/kg/day) was 66.0 (14.3) mg/dL and the Creatinine (male, 10 mg/kg/day) was 0.3 (0.1) mg/dL. The GGT (male, 10 mg/kg/day) was 0.0 (0.0) U/L, the Globulin (male, 10 mg/kg/day) was 1.6 (0.2) g/dL and the Glucose (male, 10 mg/kg/day) was 83.0 (6.8) mg/dL. The Phos (male, 10 mg/kg/day) was 8.6 (1.0) mg/dL, the Potassium (male, 10 mg/kg/day) was 5.1 (0.3) mmol/L and the Sodium (male, 10 mg/kg/day) was 144.0 (0.0) mmol/L. The T-Bil (male, 10 mg/kg/day) was 0.0 (0.0) mg/dL, the TP (male, 10 mg/kg/day) was 5.4 (0.3) g/dL and the Triglycerides (male, 10 mg/kg/day) was 29.0 (5.3) mg/dL. The “Urea N” value (male, 10 mg/kg/day) was 19.0 (3.5) mg/dL, the A/G (male, 20 mg/kg, day 2) was 2.7 (0.1)^c^,^d^,^e and the ALP (male, 20 mg/kg, day 2) was 232.0 (45.0) U/L. The ALT (male, 20 mg/kg, day 2) was 74.0 (38.0)^d^,^e U/L, the AST (male, 20 mg/kg, day 2) was 245.0 (100.0)^d^,^e U/L and the Albumin (male, 20 mg/kg, day 2) was 2.7 (0.0)^c^,^d^,^e g/dL. The CK (male, 20 mg/kg, day 2) was 707.0 (615.0) U/L, the Calcium (male, 20 mg/kg, day 2) was 9.4 (0.5)^d mg/dL and the Chloride (male, 20 mg/kg, day 2) was 101.0 (1.0)^c^,^d^,^e mmol/L. The Cholesterol (male, 20 mg/kg, day 2) was 67.0 (7.0) mg/dL, the Creatinine (male, 20 mg/kg, day 2) was 0.4 (0.1)^c^,^d^,^e mg/dL and the GGT (male, 20 mg/kg, day 2) was 0.0 (0.0) U/L. For the same molecule, the Globulin (male, 20 mg/kg, day 2) was 1.0 (0.0)^c^,^d^,^e g/dL, the Glucose (male, 20 mg/kg, day 2) was 175.0 (35.0)^c^,^d^,^e mg/dL and the Phos (male, 20 mg/kg, day 2) was 9.3 (3.8) mg/dL. For the same molecule, the Potassium (male, 20 mg/kg, day 2) was 5.1 (0.6) mmol/L, the Sodium (male, 20 mg/kg, day 2) was 140.0 (2.0)^c^,^d^,^e mmol/L and the T-Bil (male, 20 mg/kg, day 2) was 0.1 (0.2) mg/dL. For the same molecule, the TP (male, 20 mg/kg, day 2) was 3.7 (0.1)^c^,^d^,^e g/dL, the Triglycerides (male, 20 mg/kg, day 2) was 193.0 (111.0)^c^,^d^,^e mg/dL and the “Urea N” value (male, 20 mg/kg, day 2) was 28.0 (6.0)^c^,^d^,^e mg/dL.
